This is an account of results in patent US5883098A, “Piperazine derivatives” (Fujisawa Pharmaceutical Co., Ltd., priority 1993, dated 1999).

Structures can show the parent of a compound that is named as a salt. Bounds are passed on as bounds.

T2 sequence (P25103 whole entry): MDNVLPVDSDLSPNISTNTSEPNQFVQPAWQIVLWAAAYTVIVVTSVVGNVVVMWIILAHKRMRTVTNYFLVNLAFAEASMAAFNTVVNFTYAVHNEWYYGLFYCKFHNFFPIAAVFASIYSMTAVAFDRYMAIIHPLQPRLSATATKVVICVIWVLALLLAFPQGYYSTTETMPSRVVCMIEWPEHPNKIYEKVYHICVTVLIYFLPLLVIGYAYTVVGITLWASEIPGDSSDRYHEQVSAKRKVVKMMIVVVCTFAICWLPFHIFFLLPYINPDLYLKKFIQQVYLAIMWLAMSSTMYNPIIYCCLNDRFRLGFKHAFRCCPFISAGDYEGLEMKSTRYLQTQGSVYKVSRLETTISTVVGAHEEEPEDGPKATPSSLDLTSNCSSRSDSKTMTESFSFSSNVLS
T1 sequence (P30547 whole entry): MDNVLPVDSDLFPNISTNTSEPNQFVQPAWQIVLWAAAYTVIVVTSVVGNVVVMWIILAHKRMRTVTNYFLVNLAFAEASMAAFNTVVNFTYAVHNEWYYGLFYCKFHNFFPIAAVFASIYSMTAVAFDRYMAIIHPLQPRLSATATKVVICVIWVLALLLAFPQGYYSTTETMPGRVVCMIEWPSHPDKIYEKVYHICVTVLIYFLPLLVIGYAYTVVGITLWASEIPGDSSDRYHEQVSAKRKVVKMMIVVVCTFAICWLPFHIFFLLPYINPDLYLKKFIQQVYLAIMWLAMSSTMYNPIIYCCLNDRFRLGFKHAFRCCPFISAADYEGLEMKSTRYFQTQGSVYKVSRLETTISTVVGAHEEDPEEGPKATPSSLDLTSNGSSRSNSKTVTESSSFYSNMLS

The first assay addresses T1, guinea pig lung membranes (Cavia porcellus, UniProt P30547).
T1 construct: The trachea and lung were removed and homogenized in ice-cold buffer; from tissue; host or cells: guinea pig (male Hartley strain) trachea and lung, crude membrane fraction
Description: ^3 H-Substance P binding to guinea pig lung membranes. The settings on record: at the concentration of 1 μg/ml; read-out: inhibition rate of ^3 H-Substance P binding to guinea pig lung membranes. The method, then: ^3 H-Substance P Binding to Guinea Pig Lung Membranes Test Method
^3 H-Substance P Binding to Guinea Pig Lung Membranes
(a) Crude lung membrane preparation
Male Hartly strain guinea pigs were stunned and bled. The trachea and lung were removed and homogenized in ice-cold buffer (0.25M sucrose, 50 mM Tris-HCl pH 7.5, 0.1 mM EDTA) by using Polytoron (Kinematica). The homogenate was centrifuged (1000×g, 10 minutes) to remove tissue clumps and the supernatant was centrifuges (35000×g, 20 minutes) to yield pellet. The pellet was resuspended in buffer (5 mM Tris-HCl pH 7.5), homogenized with a teflon homogenizer and centrifuged (35000×g, 20 minutes) to yield pellet which was referred to as crude membrane fractions. The obtained pellet was resuspended in buffer (50 mM Tris-HCl pH 7.5) and stored at -70° C. until use.
(b) ^3 H-Substance P binding to preparation membrane
Frozen crude membrane fractions were thawed and resuspended in Medium 1 (50 mM Tris-HCl pH 7.5, 1 mM MnCl2, 0.02% BSA, 2 μg/ml chymostatin, 4 μg/ml leupeptin, 40 μg/ml bacitracin, 10 μM phosphoramidon). ^3 H-Substance P (1 nM) was incubated with 100 μl of the membrane preparations with or without test compounds in Medium 1 at 25° C. for 30 minutes in a final volume of 500 μl. At the end of the incubation period, 5 ml ice-cold 50 mM Tris-HCl buffer was added to each tube and its content was quickly filtered over a Wahtman GF/B glass filter (pretreated with 0.1% polyethylene imine for 3 hours prior to use) under aspiration. Each of the filters was then washed four times with 5 ml of ice-cold buffer (50 mM Tris-HCl pH 7.5). […] All data presented are specific binding defined as that displaceable by 5 μM unlabeled Substance P.
A word on the inhibition: it is how much of the control response was suppressed. Turning to `O=C(CCCc1ccccc1)N1CCN(C(=O)c2cc(C(F)(F)F)cc(C(F)(F)F)c2)[C@H](Cc2ccccc2)C1` [Example 17-5, (2R)-2-Benzyl-1-[3,5-bis(trifluoromethyl)benzoyl]-4-(4-phenylbutyryl)piperazine], the inhibition at 1 µg/mL was greater than 90%. On the same count and under the same terms, with `O=C(c1cc(C(F)(F)F)cc(C(F)(F)F)c1)N1CCNC[C@H]1Cc1ccccc1` [Example 7-7] the figure was greater than 90%; with `O=C(CCc1ccccc1)N1CCN(C(=O)c2cc(C(F)(F)F)cc(C(F)(F)F)c2)[C@H](Cc2ccccc2)C1` [Example 17-4, (2R)-2-Benzyl-1-[3,5-bis(trifluoromethyl)benzoyl]-4-(3-phenylpropionyl)piperazine], greater than 90%; with `CN(C)C(=O)N1CCN(C(=O)c2cc(C(F)(F)F)cc(C(F)(F)F)c2)[C@H](Cc2c[nH]c3ccccc23)C1` [Example 19-1, (2R)-1-[3,5-Bis(trifluoromethyl)benzoyl]-2-(1H-indol-3-yl-methyl) -4-(N,N-dimethylaminocarbonyl)piperazine], greater than 90%.

As to `O=C(CCc1c[nH]c2ccccc12)N1CCN(C(=O)c2cc(C(F)(F)F)cc(C(F)(F)F)c2)[C@H](Cc2ccccc2)C1` [Example 17-10, (2R)-2-Benzyl-1-[3,5-bis(trifluoromethyl)benzoyl]-4-[3-(1H-indol-3-yl)propionyl]piperazine], the inhibition at 1 µg/mL is greater than 90%. On the same count and under the same terms, in the case of `CN(C)C(=O)N1CCN(C(=O)c2cc(C(F)(F)F)cc(C(F)(F)F)c2)[C@H](Cc2ccccc2)C1` [Example 19-4, (2R)-2-Benzyl-1-[3,5-bis(trifluoromethyl)benzoyl]-4-(N,N-dimethylcarbamoyl)piperazine] it was greater than 90%; in that of `CC(=O)N1CCN(C(=O)c2cc(C(F)(F)F)cc(C(F)(F)F)c2)[C@H](Cc2ccc(C)c(C)c2)C1` [Example 19-10, (2R)-4-Acetyl-1-[3,5-bis(trifluoromethyl)benzoyl]-2-(3,4-dimethylbenzyl)piperazine], greater than 90%; in that of `O=C(/C=C/c1ccc([N+](=O)[O-])cc1)N1CCN(C(=O)c2cc(C(F)(F)F)cc(C(F)(F)F)c2)[C@H](Cc2ccccc2)C1` [Example 17-24, (2R)-2-Benzyl-1-[3,5-bis(trifluoromethyl)benzoyl]-4-(4-nitro-trans-cinnamoyl)piperazine], greater than 90%. `O=C(/C=C/c1ccc(F)cc1)N1CCN(C(=O)c2cc(C(F)(F)F)cc(C(F)(F)F)c2)[C@H](Cc2c[nH]c3ccccc23)C1` [Example 17-2, (2R)-1-[3,5-Bis(trifluoromethyl)benzoyl]-2-(1H-indol-3-yl-methyl)-4-(4-fluoro-trans-cinnamoyl)piperazine]: the inhibition at 1 µg/mL was greater than 90%. Still for that read-out and setting: in the case of `Cc1ccc(C[C@@H]2CNCCN2C(=O)c2cc(C(F)(F)F)cc(C(F)(F)F)c2)cc1C` [Example 24-8, (2R)-1-[3,5-Bis(trifluoromethyl)benzoyl]-2-(3,4-dimethylbenzyl) piperazine hydrochloride] it was greater than 90%. Same read-out and setting: in the case of `O=C(CCCc1c[nH]c2ccccc12)N1CCN(C(=O)c2cc(C(F)(F)F)cc(C(F)(F)F)c2)[C@H](Cc2ccccc2)C1` [Example 17-11, (2R)-2-Benzyl-1-[3,5-bis(trifluoromethyl)benzoyl]-4-[4-(1H-indol-3-yl)butyryl]piperazine] it was greater than 90%; in that of `O=C(/C=C/c1ccccc1)N1CCN(C(=O)c2cc(C(F)(F)F)cc(C(F)(F)F)c2)[C@H](Cc2c[nH]c3ccccc23)C1` [Example 17-1, (2R)-1-[3,5-Bis(trifluoromethyl)benzoyl]-2-(1H-indol-3-yl-methyl)-4-(trans-cinnamoyl)piperazine], greater than 90%; in that of `CN(C)CC(=O)N1CCN(C(=O)c2cc(C(F)(F)F)cc(C(F)(F)F)c2)[C@H](Cc2c[nH]c3ccccc23)C1` [Example 24-4, (2R)-1-[3,5-Bis(trifluoromethyl)benzoyl]-2-(1H-indol-3-yl-methyl)-4-[2-(N,N-dimethylamino)acetyl]-piperazine hydrochloride], greater than 90%.

A further assay has as its target T2, h-NK1 receptors (Homo sapiens, UniProt P25103).
T2 construct: expressed in transfected cells; host or cells: CHO cells
Description: ^125 I-BH-Substance P binding to h-NK1 receptors. As to conditions: at the concentration of 0.1 μg/ml; CHO cell membranes expressing h-NK1 receptors; read-out: inhibition rate of ^125 I-BH-Substance P binding to h-NK1 receptors. Here is the method:
^125 I-BH-Substance P Binding to h-NK1 Receptors Test Method
^125 I-BH-Substance P Binding to h-NK1 Receptors
(a) Crude CHO cell membrane preparation
CHO cells permanently expressing h-NK1 receptors were harvested and homogenized with a Dounce homogenizer at 4° C. in a buffer (0.25M sucrose, 25 mM Tris-HCl pH 7.4, 10 mM MgCl2, 1 mM EDTA, 5 μg/ml p-APMSF). The homogenate was centrifuged (500×g, 10 minutes), and the pellet was resuspended in the same buffer, homogenized, and centrifuged. The two supernatants were combined and centrifuged (100,000×g, 1 hour). The crude cell membranes thus isolated were resuspended in buffer (25 mM Tris-HCl pH 7.4, 10 mM MgCl2, 1 mM EDTA, 5 μg/ml p-APMSF) and stored at -80° C. until use.
(b) ^125 I-BH-Substance P binding to preparation membrane Cell membranes (6 μg/ml) were incubated with ^125 I-BH-Substance P (0.1 nM) with or without test compounds in 0.25 ml of Medium 2(50 mM Tris-HCl pH 7.4, 5 mM MnCl2, 20 μg/ml chymostatin, 40 μg/ml bacitracin, 4 μg/ml leupeptin, 5 μg/ml p-APMSF, 200 μg/ml BSA) at 22° C. for 90 minutes. At the end of the incubation period, the content was quickly filtered over a Wahtman GF/C glass filter (pretreated with 0.1% polyethylene imine for 3 hours prior to use) under aspiration. Each of the filters was then washed four times with 5 ml of buffer (50 mM Tris-HCl pH 7.4, 5 mM MnCl2). The radioactivity was counted by using Auto Gamma counter (Packerd RIASTAR 5420A). All data presented are specific binding defined as that displaceable by 3 μM unlabeled Substance P.
With `CC(C)(C)C(=O)Nc1nc(CN2CCN(C(=O)c3cc(C(F)(F)F)cc(C(F)(F)F)c3)[C@H](Cc3c[nH]c4ccccc34)C2)cs1` [Example 79-4], the inhibition at 0.1 µg/mL was greater than 90%.

Turning to `CNC(=O)CN1CCN(C(=O)c2cc(C(F)(F)F)cc(C(F)(F)F)c2)[C@H](Cc2c[nH]c3ccccc23)C1` [Example 26, (2R)-1-[3,5-bis (trifluoromethyl)benzoyl]-2-(1H-indol-3-yl-methyl)-4-(N-methylcarbamoylmethyl)piperazine hydrochloride], the inhibition at 0.1 µg/mL is greater than 90%. Same read-out and setting: in the case of `CS(=O)(=O)N1CCN(C(=O)c2cc(C(F)(F)F)cc(C(F)(F)F)c2)[C@H](Cc2c[nH]c3ccccc23)C1` [Example 19-13, (2R)-1-[3,5-Bis(trifluoromethyl)benzoyl]-2-(1H-indol-3-yl-methyl)-4-mesylpiperazine] it was greater than 90%. Same read-out and setting: in the case of `CCCC(=O)Nc1nc(CN2CCN(C(=O)c3cc(C(F)(F)F)cc(C(F)(F)F)c3)[C@H](Cc3c[nH]c4ccccc34)C2)cs1` [Example 79-6] it was greater than 90%; in that of `Cc1ccc(C[C@@H]2CN(C(=O)/C=C/C3CCCCC3)CCN2C(=O)c2cc(C(F)(F)F)cc(C(F)(F)F)c2)cc1C` [Example 17-60, (2R)-1-[3,5-Bis(trifluoromethyl)benzoyl]-2-(3,4-dimethylbenzyl)-4-(3-cyclohexyl-trans-acryloyl)piperazine], greater than 90%; in that of `CC(=O)Nc1nc(/C=C/C(=O)N2CCN(C(=O)c3cc(C(F)(F)F)cc(C(F)(F)F)c3)[C@H](Cc3c[nH]c4ccccc34)C2)cs1` [Example 21-3, (2R)-4-[3-[2-(Acetylamino)thiazol-4-yl]-trans-acryloyl]-1-[3,5-bis(trifluoromethyl)benzoyl]-2-(1H-indol-3-yl-methyl)piperazine], greater than 90%. On the same count and under the same terms, with `NC(=O)CN1CCN(C(=O)c2cc(C(F)(F)F)cc(C(F)(F)F)c2)[C@H](Cc2c[nH]c3ccccc23)C1` [Example 25-2, (^2 R)-1-[3,5-Bis(trifluoromethyl)benzoyl]-2-(1H-indol-3-yl-methyl)-4-(carbamoylmethyl)piperazine] the figure was greater than 90%; with `O=C(/C=C/c1cccnc1)N1CCN(C(=O)c2cc(C(F)(F)F)cc(C(F)(F)F)c2)[C@H](Cc2c[nH]c3ccccc23)C1` [Example 17-57, (2R)-1-[3,5-Bis(trifluoromethyl)benzoyl]-2-(1H-indol-3-yl-methyl)-4-[3-(3-pyridyl)-trans-acryloyl]-piperazine], greater than 90%. Take `O=C(/C=C/C1CCCCC1)N1CCN(C(=O)c2cc(C(F)(F)F)cc(C(F)(F)F)c2)[C@H](Cc2c[nH]c3ccccc23)C1` [Example 17-50, (2R)-1-[3,5-Bis(trifluoromethyl)benzoyl]-4-[(3-cyclo-hexyl)-trans-acryloyl]-2-(1H-indol-3-yl-methyl)-piperazine]: the inhibition at 0.1 µg/mL was greater than 90%. For `O=C(C1CC1)N1CCN(C(=O)c2cc(C(F)(F)F)cc(C(F)(F)F)c2)[C@H](Cc2c[nH]c3ccccc23)C1` [Example 17-56, (2R)-1-[3,5-Bis(trifluoromethyl)benzoyl]-4-(cyclo-propylcarbonyl)-2-(1H-indol-3-yl-methyl)piperazine], the inhibition at 0.1 µg/mL was greater than 90%.
